Laboratory results from PubChem BioAssay AID463204 (Broad Institute, 2010).
Activity calls are given as the source filed them.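 How the source made its calls: active means AC50 no more than ten times the top concentration tested, that is within one log above it; inconclusive means flat curve fit with activity between 30% and 70%, or invalid poor fit; inactive means AC50 beyond ten times the top tested dose.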

Each compound was assayed on S. cerevisiae Mot1-301 ts growth rescue, BacTiter-Glo ATP luminescence (assay: restored Mot1-301 yeast growth at 38.5C – whole organism, S. cerevisiae, Mot1-301 ts mutant, luminescence, dose retest, SUMOylation pathway inhibitor project, confirmation (AID 463204);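 further: growth at restrictive 38.5 degrees C of Mot1-301 OY566 strain; actives raise luminescence by restoring growth of the ts mutant at high temperature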).

Row | SMILES | AC50
1 | CNc1csc(C)c(C)c1=O | > 42 µM (inactive)
2 | CCn1c(CSCc2ccc(F)cc2)nnc1SCC(=O)NCc1ccccc1 | > 42 µM (inactive)
3 | CC1CCN(C(=O)Cn2cnc3c2c(=O)n(C)c(=O)n3C)c2ccccc2S1 (stereo unspecified) | 7.66 µM
4 | CCOc1ccc(N(CC)S(=O)(=O)c2cccc3nsnc23)cc1 | > 42 µM (inactive)
5 | CC(=O)c1ccc(Oc2cc(C)nc(N3CCOCC3)n2)cc1 | > 42 µM (inactive)
6 | Cc1cc(C)cc(OC(=O)CS(=O)c2ccc(C(F)(F)F)cc2[N+](=O)[O-])c1 (stereo unspecified) | 3.48 µM
7 | Cc1ccc(-c2nc(-c3cccnc3)sc2CC(=O)O)cc1 | > 42 µM (inactive)
8 | CC(=O)N1CCCc2cc(S(=O)(=O)Nc3ccc(C)cc3C)ccc21 | > 42 µM (inactive)
9 | CN(C/C=C/c1ccccc1[N+](=O)[O-])Cc1ccccc1 | > 42 µM (inactive)
10 | CC[n+]1c(/C=C/N(C)c2ccccc2)n(-c2ccccc2)c2ccc(-c3nc4ccccc4s3)cc21 | 19.6 µM
11 | Cc1c(C(=O)OCC(=O)Nc2ccc(S(N)(=O)=O)cc2)oc2c1ccc1ccccc12 | > 42 µM (inactive)
12 | O=C1C2CCCN2C(=S)N1C1CCCCC1 (stereo unspecified) | > 42 µM (inactive)
13 | CCOc1ccc(Br)cc1CNCCN1CCOCC1 | > 42 µM (inactive)
14 | Cc1n[nH]c(=O)c2c(NC(=O)COC(=O)Cc3ccc(Cl)cc3Cl)oc(C)c12 | > 21 µM (inactive)
15 | Oc1c(Br)cc(Br)cc1C=Nc1cccnc1 | 4.88 µM
16 | Cc1ccc(-n2nnnc2C(Cl)(Cl)c2nnnn2-c2ccc(C)cc2)cc1 | 0.73 µM
17 | COc1cccc(/C=N/NC(=O)CNC(=O)c2ccco2)c1O | > 42 µM (inactive)
18 | CCc1cc2c(=O)c(-c3nc4ccccc4[nH]3)coc2c(CN2CCCCC2)c1O | > 42 µM (inactive)
19 | CCOC(=O)N1CCC(Nc2nc3ccccc3n3nnnc23)CC1 | > 42 µM (inactive)
20 | CCOc1ccc(NC(=O)CSc2nnc(Cc3csc(C)n3)o2)cc1 | > 42 µM (inactive)
21 | COc1cc(/C=C(\C#N)C(=O)Nc2ccc(C(=O)O)cc2)ccc1OC(=O)c1cccc(F)c1 | > 42 µM (inactive)
22 | Oc1c(Cl)cc(Cl)c(Cl)c1Cc1c(O)c(Cl)cc(Cl)c1Cl | 0.84 µM
23 | O=C(Nc1ccccc1N1CCOCC1)c1cc(Br)c(Br)s1 | > 42 µM (inactive)
24 | CCCNCC(O)COc1ccccc1C(=O)CCc1ccccc1 (stereo unspecified) | > 42 µM (inactive)
25 | CCC(C)[C@H](NC(=O)OC(C)(C)C)C(=O)NCC1CCC(C(=O)N[C@@H](Cc2ccccc2)C(=O)O)CC1 (stereo partly specified) | > 42 µM (inactive)
26 | CC(C)C[C@@H](CO)N1CCN(Cc2cccnc2)CCC1=O | > 42 µM (inactive)

Row | SMILES | AC50
27 | CCOC(=O)C1CCN(C(=O)c2ccc3c(c2)NC(=O)/C(=C/c2ccccc2)S3)CC1 | > 42 µM (inactive)
28 | O=C(O)c1cc(S(=O)(=O)Nc2ccc(OCc3ccccc3)cc2)ccc1Br | > 42 µM (inactive)
29 | Cc1ccc(N(C(=O)CCl)C(C(=O)NC2CCCCC2)c2cccnc2)cc1C (stereo unspecified) | 9.72 µM
30 | c1ccc(CNc2ncnc3sc4c(c23)CCC4)nc1 | > 42 µM (inactive)
31 | CC(=O)Nc1cccc2c1C(=O)N(c1ccccc1C)C2=O | > 42 µM (inactive)
32 | Cc1ccc(S(=O)(=O)N2c3ccc(S(N)(=O)=O)cc3CC2C)cc1 (stereo unspecified) | > 42 µM (inactive)
33 | CSc1ccccc1-c1nc(-c2ccncc2)no1 | > 42 µM (inactive)
34 | CCCCCC(=O)Nc1ccc(-c2csc(N)n2)cc1 | > 42 µM (inactive)
35 | O=C(CN1CCN(Cc2ccc(Cl)cc2)CC1)N/N=C/c1ccncc1 | > 42 µM (inactive)
36 | Clc1ccc(CNCc2cccs2)cc1Cl | > 42 µM (inactive)
37 | Cc1c(=O)n(OCc2ccccn2)c2ccccc2[n+]1[O-] | > 42 µM (inactive)
38 | O=C(NCC(c1cccs1)N1CCOCC1)c1ccccc1NS(=O)(=O)c1cc([N+](=O)[O-])ccc1Cl (stereo unspecified) | > 42 µM (inactive)
39 | CCn1c(SCC(=O)NC2CCCCC2)nnc1C(C)NC(=O)c1ccccc1F (stereo unspecified) | > 42 µM (inactive)
40 | O=c1c2ccccc2nc(SCc2nnc(-c3ccccc3)o2)n1-c1ccc(F)cc1F | > 42 µM (inactive)
41 | O=C(COc1ccc(-n2cnnn2)cc1)NCCc1ccc(F)cc1 | > 42 µM (inactive)
42 | O=C1CN(C(=O)COC(=O)COc2ccc3c(c2)CCC3)c2ccccc2N1 | > 42 µM (inactive)
43 | CCc1cc2c(=O)c(-c3nc4ccccc4n3C)c(C)oc2c(CN2CCOCC2)c1O | > 42 µM (inactive)
44 | CC1CN(S(=O)(=O)c2cccc(C(=O)N=c3sccn3C)c2)CC(C)O1 (stereo unspecified) | > 42 µM (inactive)
45 | O=C(NCc1nc(-c2ccccc2)no1)c1cccs1 | > 42 µM (inactive)
46 | CCCN(CCC)C(=O)CSc1ncccc1C(=O)O | > 42 µM (inactive)
47 | COc1ccc(CCN(C)CCCC(C#N)(c2ccc(OC)c(OC)c2)C(C)C)cc1OC (stereo unspecified) | > 42 µM (inactive)
48 | Nc1ccnc(=O)[nH]1 | > 42 µM (inactive)
49 | O=c1c2ccccc2ncn1Cc1ccc2c(c1)OCO2 | > 42 µM (inactive)
50 | Cc1[nH]nc2c1C(c1cccs1)C1=C(CC(C)(C)CC1=O)N2 (stereo unspecified) | > 42 µM (inactive)
51 | COC(=O)c1ccc(/C=N/NC(=O)C(=O)NCC2CCCO2)cc1 (stereo unspecified) | > 42 µM (inactive)
52 | COCCCn1c2nc3ccccc3nc2c2c(=O)n(Cc3ccc(Cl)cc3)cnc21 | > 42 µM (inactive)

Row | SMILES | AC50
53 | N=c1n(CCCOc2ccc(Br)cc2)c2ccccc2n1CC(N)=O | > 42 µM (inactive)
54 | Cc1ccc(-n2nnnc2SCC#N)cc1 | > 42 µM (inactive)
55 | Cc1ccc(C(=O)NCCCN2CCOCC2)cc1 | > 42 µM (inactive)
56 | Cc1ccc(NC(=O)Cn2nnc(C(=O)NCc3ccc4c(c3)OCO4)c2N)cc1 | > 42 µM (inactive)
57 | COc1ccc(/C=C(\C#N)C(=O)c2cccn2C)cc1 | > 42 µM (inactive)
58 | CCC(=O)Nc1ccc(S(=O)(=O)NCc2ccco2)cc1 | > 42 µM (inactive)
59 | CCC(C(=O)Nc1cccnc1)c1ccccc1 (stereo unspecified) | > 42 µM (inactive)
60 | C=CCNC(=O)NC(=O)COC(=O)CCCSc1nc2ccccc2[nH]1 | > 42 µM (inactive)
61 | CC1=CC2=NC(=O)/C(=C\c3cc(C)n(-c4ccccc4)c3C)C(=N)N2O1 | > 42 µM (inactive)
62 | CC(C)(C)c1ccc(-c2nc(C=O)c3ccccn23)cc1 | > 42 µM (inactive)
63 | COc1ccc(NS(=O)(=O)c2cccc(C(=O)NCCCn3ccnc3)c2)cc1 | > 21 µM (inactive)
64 | COc1ccccc1N1CCN(CCN2C(=O)C3CCCCN3C2=O)CC1 (stereo unspecified) | > 42 µM (inactive)
65 | O=C(CSc1nc(-c2ccccc2)nc2ccc(F)cc12)Nc1cccc(C(=O)O)c1 | > 42 µM (inactive)
66 | O=C(COc1ccc(F)cc1Cl)N(Cc1nnc(-c2ccccc2Cl)o1)C1CC1 | > 42 µM (inactive)
67 | CCn1c(SCc2nc3ccccc3s2)nnc1-c1ccccc1 | > 42 µM (inactive)
68 | COCCn1c(-c2ccc(Cl)cc2)cnc1SCC(=O)NCCc1ccc(OC)c(OC)c1 | > 42 µM (inactive)
69 | Cc1cccc(N2C(=O)CSC2c2cccnc2)c1 (stereo unspecified) | > 42 µM (inactive)
70 | CCCS(=O)(=O)N1CCC(C(=O)N2CCc3ccccc3C2)CC1 | > 42 µM (inactive)
71 | COCCn1c(SCC(=O)NCc2cccs2)nnc1-c1ccc(OC)cc1 | > 42 µM (inactive)
72 | COCCN(C(=O)C1CC1)c1nnc(-c2ccc(C)cc2)s1 | > 42 µM (inactive)
73 | COc1ccc(NC(=O)CC(C)C)c(OC)c1 | > 42 µM (inactive)
74 | Cc1c(C)c2c(c(C)c1O)CCC(C)(C(=O)O)O2 (stereo unspecified) | > 42 µM (inactive)
75 | Cc1ccc(C)c(N2CCN(C(c3ccncc3)c3nnnn3Cc3ccccc3)CC2)c1 (stereo unspecified) | > 21 µM (inactive)
76 | CN1c2ccccc2-c2nc3ccccc3n2C1c1ccncc1 (stereo unspecified) | > 42 µM (inactive)
77 | CCOC(=O)c1cc(C#N)c(Oc2ccccc2OC)nc1-c1ccccc1 | > 42 µM (inactive)
78 | COc1ccc(-c2csc(NC(=O)CCS(=O)(=O)c3ccccc3)n2)c(OC)c1 | > 42 µM (inactive)

Row | SMILES | AC50
79 | COc1cc2c(cc1NC(=O)c1cccnc1)oc1ccccc12 | > 42 µM (inactive)
80 | O=C1c2cc(N3CCCC3)c([N+](=O)[O-])cc2C(=O)N1c1ccccc1 | > 42 µM (inactive)
81 | O=c1cc(-c2ccccc2)nc(N2CCN(Cc3ccccc3)CC2)[nH]1 | > 42 µM (inactive)
82 | CCc1c(C)c2ccc(OCC(=O)OC(C)C)c(C)c2oc1=O | > 42 µM (inactive)
83 | Clc1cc(Br)ccc1OCCOCCN1CCOCC1 | > 42 µM (inactive)
84 | COC(=O)c1[nH]c2cc(C)ccc2c1NC(=O)CN1CCN(c2ccccc2OC)CC1 | > 21 µM (inactive)
85 | CCSc1nc2ccccc2c(=O)n1C1CCOC(C)(C)C1 (stereo unspecified) | > 42 µM (inactive)
86 | C=CCOc1ccccc1CN1CCCC(CCC(=O)N(C)CCc2ccccn2)C1 (stereo unspecified) | > 21 µM (inactive)
87 | O=C1NC(c2ccccc2)C(C(=O)c2cccs2)C(O)(C(F)(F)F)N1 (stereo unspecified) | > 42 µM (inactive)
88 | COc1cc(C)c(Cl)c(C)c1S(=O)(=O)NCc1ccc2c(c1)OCO2 | > 42 µM (inactive)
89 | CC(C)(C)NC(=S)NCc1cccnc1 | > 42 µM (inactive)
90 | CN(C(=O)CSc1nc(-c2ccccc2)c(-c2ccccc2)o1)C1CCS(=O)(=O)C1 (stereo unspecified) | > 42 µM (inactive)
91 | CC(=O)Nc1nn(C)c2nc3ccc(C)cc3cc12 | > 42 µM (inactive)
92 | CC(C)C(=O)NNc1ccc(C(F)(F)F)cn1 | > 42 µM (inactive)
93 | Cc1ccc(CNC(=O)c2ccc(N3CCC4(CC3)CC(c3ccccc3)=NO4)c(NC(=O)c3cccc(C)c3)c2)cc1 | > 42 µM (inactive)
94 | O=C(CCl)N(Cc1cc(=O)[nH]c2ccccc12)c1ccccc1 | > 42 µM (inactive)
95 | S=c1[nH]nc(-c2ccccn2)n1/N=C/c1ccccc1 | > 42 µM (inactive)
96 | C=CCn1c(=N)c(C(=O)NCCCOC)cc2c(=O)n3ccccc3nc21 | > 42 µM (inactive)
97 | CCCCCNC(=O)c1ccc2c(=O)n(CC3CCCO3)c(=O)[nH]c2c1 (stereo unspecified) | > 42 µM (inactive)
98 | COc1nc(-c2ccccc2)ccc1-c1noc(-c2ccccc2)n1 | > 42 µM (inactive)
99 | CCOc1ccc(Cl)cc1CNc1nnnn1CC | > 42 µM (inactive)
100 | CCOC(=O)C(NC(=O)c1ccccc1)(N1CCOCC1)C(F)(F)F (stereo unspecified) | > 42 µM (inactive)
101 | Cc1sc2nc(CN3CCCC3)nc(NCc3ccncc3)c2c1C | > 42 µM (inactive)
